In article PMC11926880, “Procognitive Potential of Neuroprotective Triazine 5-HT6 Receptor Antagonists Tested on Chronic Activity In Vivo in Rats: Computer-Aided Insight into the Role of Chalcogen-Differences on the Pharmacological Profile” (ACS Chemical Neuroscience, 2025):
Several values for one entry are separate records, joined by “and”; a condition that tells them apart may be missing. Equal values may be shown once. Read-outs that look alike come from different tables or passages of the source.

Key:
rats = conditions: acute administration, male Wistar rats, (+)MK-801; cited from earlier work
[1] = tissue distribution pharmacokinetics after single i.p. administration; format: in vivo, rat; design: Cmax: unit: ng/g
Method: Standard laboratory food (LSM-B) and filtered water as well as environment enrichment were freely available. Animals were randomly divided into treatment groups using a computer-based random order generator. All of the experiments were performed by two observers unaware of the treatment applied between 9:00 and 14:00 on separate groups of animals. Rats were injected with the investigated compounds once (in pharmacokinetic studies) and for 21 days (in behavioral studies), and afterward, behavioral tests were conducted and tissue collection was done, as required. For pharmacokinetic studies, animals were fasted prior to dosing by withholding food but not water overnight. After dosing, the food was withheld for an additional 8 h. All animals were used only once. Animals were handled every day and weighed every other day in the chronic part of the experiment. Procedures involving animals and their care were conducted in accordance with current European Community and Polish legislations on animal experimentation. Additionally, all efforts were made to minimize animals' suffering and to use only the number of animals necessary to produce reliable scientific data. The experimental protocols and procedures described were approved by the I Local Ethics Commission in Cracow (nos 309/2019 and 765/2023) and complied with the European Communities Council Directive of 24 November 24, 1986 (86/609/EEC) and were in accordance with the 1996 NIH Guide for the Care and Use of Laboratory Animals. The research program complies with the commonly accepted '3Rs' (replacement and reduction of animals, refinement of experimental conditions, and procedures to minimize the harm to animals). […] Moreover, five tissues (i.e., brain, heart, lungs, kidneys, and liver) were harvested and rinsed with cold saline. Blood was allowed to clot at room temperature for 15-20 min and then centrifuged (3000 rpm for 10 min). The obtained serum and tissues were stored at -80 °C until analysis. […] HPLC analysis with UV detection at 221 nm was performed at a 1 mL/min flow rate, and the column temperature was 38 °C. Before analysis, tissue samples were thawed, weighed (200-250 mg), and placed in 5 mL plastic tubes with four volumes (w/v) of PBS (pH 7.4) and homogenized individually using a […]-1 homogenizer (ART Prozess & Labortechnik GmbH & Co., Germany). […] The samples were alkalized with 50 μL of 4 M sodium hydroxide solution, vortex-mixed, and extracted with 1 mL of ethyl acetate/hexane (30/70, v/v) mixture on a shaker (VXR Vibrax, IKA, Germany) for 20 min. […] Then, the samples were shaken and centrifuged again. Finally, 60-90 μL of each acidic layer was injected into the HPLC system. […] The interday and intraday precision and accuracy of quality control samples evaluated in the serum and tissue homogenates were within 15%. […] The area under the serum concentration-time curve from time zero to time t (AUC0-t), where t is the time of the last measurable sample, was calculated according to the linear trapezoidal rule. The AUC from time zero to infinity (AUC0-∞) was estimated as AUC0-t + Ct/λz, where Ct was the serum concentration of the last measurable sample. The clearance (CL/F) was calculated as D/AUC0-∞, and the volume of distribution based on the terminal phase (Vz/F) was estimated as D/(λz·AUC0-∞), where F is the bioavailability of intraperitoneal administration. The MRT is calculated to be […], where AMUC0-∞ is the area under the first moment curve from the time of dosing to infinity. The peak serum concentration (Cmax) and the time to reach Cmax (Tmax) were read directly from the observations. […] Data were presented as mean ± SD.

CN1CCN(c2nc(N)nc(C(C)(C)Sc3ccc4ccccc4c3)n2)CC1 [WA-22, 4-(4-methylpiperazin-1-yl)-6-(2-(naphthalen-2-ylthio)propan-2-yl)-1,3,5-triazin-2-amine]
memory-protective action at doses as low as (rats): 0.3 mg/kg
time after administration at which still detected in all analyzed rat organs ([1]; 1 mg/kg i.p.): 240 min
AUC0–t ([1]; brain, 0.3 mg/kg i.p.): 1575.82 ± 182.54 ng·min/g
t0.5λz ([1]; brain, 0.3 mg/kg i.p.): 48.35 ± 4.46 min
Tmax ([1]; brain, 0.3 mg/kg i.p., 0.3 mg/kg): 11.67 ± 5.77 min
Cmax ([1]; brain, 1.0 mg/kg i.p., 1 mg/kg): 114.79 ± 39.16 ng/g
Tmax ([1]; brain, 1.0 mg/kg i.p., 1 mg/kg): 8.33 ± 5.77 min
t0.5λz ([1]; brain, 1.0 mg/kg i.p., 1 mg/kg): 110.31 min and 110.31 ± 24.35 min
AUC0–t ([1]; heart, 0.3 mg/kg i.p.): 1670.68 ± 385.10 ng·min/g
t0.5λz ([1]; heart, 0.3 mg/kg i.p.): 84.99 ± 19.47 min
AUC0–t ([1]; heart, 1.0 mg/kg i.p.): 6013.14 ± 2336.18 ng·min/g
t0.5λz ([1]; heart, 1.0 mg/kg i.p.): 122.04 ± 18.30 min
fraction cleared in rat tissues and serum at 120 min ([1]; i.p. administration): 80–95%
AUC0–t ([1]; kidneys, 0.3 mg/kg i.p.): 3276.54 ± 1455.54 ng·min/g
t0.5λz ([1]; kidneys, 0.3 mg/kg i.p.): 67.32 ± 12.95 min
AUC0–t ([1]; kidneys, 1.0 mg/kg i.p.): 12540.07 ± 4826.76 ng·min/g
t0.5λz ([1]; kidneys, 1.0 mg/kg i.p., 1 mg/kg): 122 min and 121.93 ± 44.52 min
AUC0–t ([1]; liver, 0.3 mg/kg i.p.): 3993.81 ± 1308.63 ng·min/g
t0.5λz ([1]; liver, 0.3 mg/kg i.p.): 48.07 ± 6.68 min
AUC0–t ([1]; liver, 1.0 mg/kg i.p.): 14056.00 ± 8075.06 ng·min/g
t0.5λz ([1]; liver, 1.0 mg/kg i.p., 1 mg/kg): 109 min and 108.96 ± 17.84 min
AUC0–t ([1]; lungs, 0.3 mg/kg i.p.): 9320.95 ± 1906.43 ng·min/g
t0.5λz ([1]; lungs, 0.3 mg/kg i.p.): 105.43 ± 5.42 min
AUC0–t ([1]; lungs, 1.0 mg/kg i.p.): 33528.62 ± 5691.73 ng·min/g
t0.5λz ([1]; lungs, 1.0 mg/kg i.p.): 96.48 ± 13.43 min
Kp ([1]; male, Wistar, rat, brain (relative to serum), ip, i.p. administration, read-out: brain-to-serum AUC ratio): ~2.17
Cmax ([1]; male, Wistar, rat, brain, ip, 0.3 mg/kg, brain, 0.3 mg/kg i.p., read-out: Cmax): 30.7 ± 3.28 ng/g
Tmax ([1]; male, Wistar, rat, brain, ip, 0.3 mg/kg, brain, 0.3 mg/kg i.p., read-out: Tmax (converted)): 12 min
Cmax ([1]; male, Wistar, rat, brain, ip, 1 mg/kg, brain, 1.0 mg/kg i.p., read-out: Cmax): 115 ± 39.2 ng/g
Tmax ([1]; male, Wistar, rat, brain, ip, 1 mg/kg, brain, 1.0 mg/kg i.p., read-out: Tmax (converted)): 8 min
Kp ([1]; male, Wistar, rat, brain/serum, ip, 0.3 mg/kg, brain, 0.3 mg/kg i.p., read-out: AUC ratio (tissue-to-serum AUC0–t)): 1.89 ± 0.34
Kp ([1]; male, Wistar, rat, brain/serum, ip, 1 mg/kg, brain, 1.0 mg/kg i.p., read-out: AUC ratio (tissue-to-serum AUC0–t)): 2.46 ± 1.32
Kp ([1]; male, Wistar, rat, brain/serum, ip, 1 mg/kg, brain-to-serum, 1 mg/kg i.p., read-out: AUC0–∞ (ng·h/g)/AUC0–∞ (ng·h/mL)): 2.14 ± 1.18
Kp ([1]; male, Wistar, rat, brain/serum, ip, 1 mg/kg, brain-to-serum, 1 mg/kg i.p., read-out: Cmax (ng/g)/Cmax (ng/mL)): 1.99 ± 1.61
Cmax ([1]; male, Wistar, rat, heart, ip, 0.3 mg/kg, heart, 0.3 mg/kg i.p., read-out: Cmax): 37.5 ± 6.65 ng/g
Tmax ([1]; male, Wistar, rat, heart, ip, 0.3 mg/kg, heart, 0.3 mg/kg i.p., read-out: Tmax (converted)): 5 min
Cmax ([1]; male, Wistar, rat, heart, ip, 1 mg/kg, heart, 1.0 mg/kg i.p., read-out: Cmax): 172 ± 74.7 ng/g
Tmax ([1]; male, Wistar, rat, heart, ip, 1 mg/kg, heart, 1.0 mg/kg i.p., read-out: Tmax (converted)): 5 min
Kp ([1]; male, Wistar, rat, heart/serum, ip, 0.3 mg/kg, heart, 0.3 mg/kg i.p., read-out: AUC ratio (tissue-to-serum AUC0–t)): 2 ± 0.52
Kp ([1]; male, Wistar, rat, heart/serum, ip, 1 mg/kg, heart, 1.0 mg/kg i.p., read-out: AUC ratio (tissue-to-serum AUC0–t)): 2.63 ± 1.69
Kp ([1]; male, Wistar, rat, heart/serum, ip, 1 mg/kg, heart-to-serum, 1 mg/kg i.p., read-out: AUC0–∞ (ng·h/g)/AUC0–∞ (ng·h/mL)): 2.09 ± 2.71
Kp ([1]; male, Wistar, rat, heart/serum, ip, 1 mg/kg, heart-to-serum, 1 mg/kg i.p., read-out: Cmax (ng/g)/Cmax (ng/mL)): 2.61 ± 1.09
MRT ([1]; male, Wistar, rat, ip, brain, 0.3 mg/kg i.p.): 64.4 min
MRT ([1]; male, Wistar, rat, ip, brain, 1.0 mg/kg i.p.): 90.6 min
MRT ([1]; male, Wistar, rat, ip, heart, 0.3 mg/kg i.p.): 104 min
MRT ([1]; male, Wistar, rat, ip, heart, 1.0 mg/kg i.p.): 109 min
MRT ([1]; male, Wistar, rat, ip, kidneys, 0.3 mg/kg i.p.): 85.3 min
MRT ([1]; male, Wistar, rat, ip, kidneys, 1.0 mg/kg i.p.): 107 min
MRT ([1]; male, Wistar, rat, ip, liver, 0.3 mg/kg i.p.): 40.6 min
MRT ([1]; male, Wistar, rat, ip, liver, 1.0 mg/kg i.p.): 51.3 min
MRT ([1]; male, Wistar, rat, ip, lungs, 0.3 mg/kg i.p.): 130 min
MRT ([1]; male, Wistar, rat, ip, lungs, 1.0 mg/kg i.p.): 72.6 min
Cmax ([1]; male, Wistar, rat, kidneys, ip, 0.3 mg/kg, kidneys, 0.3 mg/kg i.p., read-out: Cmax): 72.3 ± 27.1 ng/g
Tmax ([1]; male, Wistar, rat, kidneys, ip, 0.3 mg/kg, kidneys, 0.3 mg/kg i.p., read-out: Tmax (converted)): 5 min
Cmax ([1]; male, Wistar, rat, kidneys, ip, 1 mg/kg, kidneys, 1.0 mg/kg i.p., read-out: Cmax): 247 ± 119 ng/g
Tmax ([1]; male, Wistar, rat, kidneys, ip, 1 mg/kg, kidneys, 1.0 mg/kg i.p., read-out: Tmax (converted)): 5 min
Kp ([1]; male, Wistar, rat, kidneys/serum, ip, 0.3 mg/kg, kidneys, 0.3 mg/kg i.p., read-out: AUC ratio (tissue-to-serum AUC0–t)): 3.93 ± 1.88
Kp ([1]; male, Wistar, rat, kidneys/serum, ip, 1 mg/kg, kidneys, 1.0 mg/kg i.p., read-out: AUC ratio (tissue-to-serum AUC0–t)): 5.47 ± 3.33
Kp ([1]; male, Wistar, rat, kidneys/serum, ip, 1 mg/kg, kidneys-to-serum, 1 mg/kg i.p., read-out: AUC0–∞ (ng·h/g)/AUC0–∞ (ng·h/mL)): 4.96 ± 3.2
Kp ([1]; male, Wistar, rat, kidneys/serum, ip, 1 mg/kg, kidneys-to-serum, 1 mg/kg i.p., read-out: Cmax (ng/g)/Cmax (ng/mL)): 3.41 ± 0.59
Kp ([1]; male, Wistar, rat, liver (relative to serum), ip, 1 mg/kg, liver, 1.0 mg/kg i.p., read-out: AUC ratio (tissue-to-serum AUC0–t)): 6.32 ± 4.96
Cmax ([1]; male, Wistar, rat, liver, ip, 0.3 mg/kg, liver, 0.3 mg/kg i.p., read-out: Cmax): 149 ± 34.8 ng/g
Tmax ([1]; male, Wistar, rat, liver, ip, 0.3 mg/kg, liver, 0.3 mg/kg i.p., read-out: Tmax (converted)): 5 min
Cmax ([1]; male, Wistar, rat, liver, ip, 1 mg/kg, liver, 1.0 mg/kg i.p., read-out: Cmax): 404 ± 101 ng/g
Tmax ([1]; male, Wistar, rat, liver, ip, 1 mg/kg, liver, 1.0 mg/kg i.p., read-out: Tmax (converted)): 5 min
Kp ([1]; male, Wistar, rat, liver/serum, ip, 0.3 mg/kg, liver, 0.3 mg/kg i.p., read-out: AUC ratio (tissue-to-serum AUC0–t)): 4.75 ± 1.57
Kp ([1]; male, Wistar, rat, liver/serum, ip, 1 mg/kg, liver-to-serum, 1 mg/kg i.p., read-out: AUC0–∞ (ng·h/g)/AUC0–∞ (ng·h/mL)): 5.11 ± 3.85
Kp ([1]; male, Wistar, rat, liver/serum, ip, 1 mg/kg, liver-to-serum, 1 mg/kg i.p., read-out: Cmax (ng/g)/Cmax (ng/mL)): 6.3 ± 2.69
Kp ([1]; male, Wistar, rat, lungs (relative to serum), ip, 1 mg/kg, lungs, 1.0 mg/kg i.p., read-out: AUC ratio (tissue-to-serum AUC0–t)): 14.1 ± 5.62
Cmax ([1]; male, Wistar, rat, lungs, ip, 0.3 mg/kg, lungs, 0.3 mg/kg i.p., read-out: Cmax): 214 ± 45.7 ng/g
Tmax ([1]; male, Wistar, rat, lungs, ip, 0.3 mg/kg, lungs, 0.3 mg/kg i.p., read-out: Tmax (converted)): 5 min
Cmax ([1]; male, Wistar, rat, lungs, ip, 1 mg/kg, lungs, 1.0 mg/kg i.p., read-out: Cmax): 744 ± 88.9 ng/g
Tmax ([1]; male, Wistar, rat, lungs, ip, 1 mg/kg, lungs, 1.0 mg/kg i.p., read-out: Tmax (converted)): 5 min
Kp ([1]; male, Wistar, rat, lungs/serum, ip, 0.3 mg/kg, lungs, 0.3 mg/kg i.p., read-out: AUC ratio (tissue-to-serum AUC0–t)): 11.1 ± 2.57
Kp ([1]; male, Wistar, rat, lungs/serum, ip, 1 mg/kg, lungs-to-serum, 1 mg/kg i.p., read-out: AUC0–∞ (ng·h/g)/AUC0–∞ (ng·h/mL)): 13.9 ± 7.95
Kp ([1]; male, Wistar, rat, lungs/serum, ip, 1 mg/kg, lungs-to-serum, 1 mg/kg i.p., read-out: Cmax (ng/g)/Cmax (ng/mL)): 15 ± 7.31
